Measurements reported in PMC12783763 (Nature Communications, 2025).
pKd: −log10 of the molar value.

Target: NPM1 (nucleophosmin 1) (Homo sapiens, UniProt P06748)
Assay: surface plasmon resonance
Format: binding

Chain of NPM1 (nucleophosmin 1) (P06748 whole entry): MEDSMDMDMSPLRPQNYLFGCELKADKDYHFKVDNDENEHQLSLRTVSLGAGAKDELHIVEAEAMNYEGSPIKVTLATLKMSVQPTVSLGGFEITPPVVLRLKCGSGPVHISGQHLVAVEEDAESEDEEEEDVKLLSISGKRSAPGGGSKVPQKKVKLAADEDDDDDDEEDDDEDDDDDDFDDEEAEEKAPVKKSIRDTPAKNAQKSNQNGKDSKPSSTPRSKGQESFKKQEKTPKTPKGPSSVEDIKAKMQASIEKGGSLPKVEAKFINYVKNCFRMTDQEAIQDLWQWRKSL

pKd: 4.68
SMILES: C[C@H](CCC(=O)NCCS(=O)(=O)O)[C@H]1CC[C@H]2[C@@H]3[C@H](O)C[C@@H]4C[C@H](O)CC[C@]4(C)[C@H]3CC[C@]12C [taurochenodeoxycholic acid]
